Assay results taken from publication PMC6644700 (ACS chemical biology, 2019).

Target: T1, Nicotinamide N-methyltransferase (NNMT) (Homo sapiens, UniProt P40261, C165A)
T1 sequence (P40261 1-264 C165A): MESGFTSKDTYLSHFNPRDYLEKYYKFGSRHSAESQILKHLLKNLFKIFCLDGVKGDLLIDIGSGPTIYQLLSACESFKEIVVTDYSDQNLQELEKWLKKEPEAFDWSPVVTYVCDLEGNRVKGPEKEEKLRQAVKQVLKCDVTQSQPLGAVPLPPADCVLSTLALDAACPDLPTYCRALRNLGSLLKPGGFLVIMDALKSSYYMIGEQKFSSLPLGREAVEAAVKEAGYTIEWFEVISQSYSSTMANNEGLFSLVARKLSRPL
Assay: suicide inactivation of purified mutant with SAM
Format: biochemical

SMILES	suicide inactivation of purified mutant with SAM
Clc1ccncc1 [compound 2, 4-chloropyridine]	By contrast, the C165A mutant remained sensitive.
NC(=O)c1cnccc1Cl [compound 3, 4-chloronicotinamide]	By contrast, the C165A mutant remained sensitive.
